# Where two headings read alike, the source gives them in different places.
# What was measured:
# WEE1 = target: T1, WEE1 (Homo sapiens, UniProt P30291+Q96SW2); experiment: Western-blot assay of substrate protein degradation in hPBMCs, WEE1; assay type: cell-based; conditions: 24 hours of compound treatment, 50 nM and 500 nM tested (concentration behind the class not stated)
# T1 construct: endogenous in cells; host or cells: hPBMCs (Milecell Biotechnologies)
# IKZF1 = target: T2, IKZF1 (Homo sapiens, UniProt Q13422+Q96SW2); experiment: Western-blot assay of substrate protein degradation in hPBMCs, IKZF1; assay type: cell-based; conditions: 24 hours of compound treatment, 50 nM and 500 nM tested (concentration behind the class not stated)
# T2 construct: endogenous in cells; host or cells: hPBMCs (Milecell Biotechnologies)
# T2 sequence (Q13422 whole entry): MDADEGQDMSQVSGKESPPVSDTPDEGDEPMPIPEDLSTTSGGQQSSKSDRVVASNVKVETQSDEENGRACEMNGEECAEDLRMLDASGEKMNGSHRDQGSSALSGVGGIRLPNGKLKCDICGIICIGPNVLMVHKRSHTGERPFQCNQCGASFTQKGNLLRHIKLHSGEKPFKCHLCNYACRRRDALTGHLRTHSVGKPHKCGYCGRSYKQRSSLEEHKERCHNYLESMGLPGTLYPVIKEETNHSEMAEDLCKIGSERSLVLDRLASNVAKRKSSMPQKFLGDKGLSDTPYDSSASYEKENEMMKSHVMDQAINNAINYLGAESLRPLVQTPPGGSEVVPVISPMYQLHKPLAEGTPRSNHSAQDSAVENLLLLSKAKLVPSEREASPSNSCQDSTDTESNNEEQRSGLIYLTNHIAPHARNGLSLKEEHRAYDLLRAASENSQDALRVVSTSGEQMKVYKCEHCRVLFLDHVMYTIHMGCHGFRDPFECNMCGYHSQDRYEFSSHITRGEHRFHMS
# T2 sequence (Q96SW2 whole entry): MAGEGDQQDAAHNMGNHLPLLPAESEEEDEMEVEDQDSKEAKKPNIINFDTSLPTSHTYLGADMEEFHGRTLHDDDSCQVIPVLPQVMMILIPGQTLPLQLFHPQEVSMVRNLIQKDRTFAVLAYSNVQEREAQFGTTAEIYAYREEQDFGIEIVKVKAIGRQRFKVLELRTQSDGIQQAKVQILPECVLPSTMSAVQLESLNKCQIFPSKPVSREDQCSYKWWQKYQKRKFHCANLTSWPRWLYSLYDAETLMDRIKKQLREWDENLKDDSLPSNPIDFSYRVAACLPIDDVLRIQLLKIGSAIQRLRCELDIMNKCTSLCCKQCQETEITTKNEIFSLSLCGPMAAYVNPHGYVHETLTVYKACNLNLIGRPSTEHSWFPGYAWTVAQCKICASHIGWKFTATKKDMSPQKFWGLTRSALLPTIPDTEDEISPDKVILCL
# T2 sequence (Q16531 whole entry partner): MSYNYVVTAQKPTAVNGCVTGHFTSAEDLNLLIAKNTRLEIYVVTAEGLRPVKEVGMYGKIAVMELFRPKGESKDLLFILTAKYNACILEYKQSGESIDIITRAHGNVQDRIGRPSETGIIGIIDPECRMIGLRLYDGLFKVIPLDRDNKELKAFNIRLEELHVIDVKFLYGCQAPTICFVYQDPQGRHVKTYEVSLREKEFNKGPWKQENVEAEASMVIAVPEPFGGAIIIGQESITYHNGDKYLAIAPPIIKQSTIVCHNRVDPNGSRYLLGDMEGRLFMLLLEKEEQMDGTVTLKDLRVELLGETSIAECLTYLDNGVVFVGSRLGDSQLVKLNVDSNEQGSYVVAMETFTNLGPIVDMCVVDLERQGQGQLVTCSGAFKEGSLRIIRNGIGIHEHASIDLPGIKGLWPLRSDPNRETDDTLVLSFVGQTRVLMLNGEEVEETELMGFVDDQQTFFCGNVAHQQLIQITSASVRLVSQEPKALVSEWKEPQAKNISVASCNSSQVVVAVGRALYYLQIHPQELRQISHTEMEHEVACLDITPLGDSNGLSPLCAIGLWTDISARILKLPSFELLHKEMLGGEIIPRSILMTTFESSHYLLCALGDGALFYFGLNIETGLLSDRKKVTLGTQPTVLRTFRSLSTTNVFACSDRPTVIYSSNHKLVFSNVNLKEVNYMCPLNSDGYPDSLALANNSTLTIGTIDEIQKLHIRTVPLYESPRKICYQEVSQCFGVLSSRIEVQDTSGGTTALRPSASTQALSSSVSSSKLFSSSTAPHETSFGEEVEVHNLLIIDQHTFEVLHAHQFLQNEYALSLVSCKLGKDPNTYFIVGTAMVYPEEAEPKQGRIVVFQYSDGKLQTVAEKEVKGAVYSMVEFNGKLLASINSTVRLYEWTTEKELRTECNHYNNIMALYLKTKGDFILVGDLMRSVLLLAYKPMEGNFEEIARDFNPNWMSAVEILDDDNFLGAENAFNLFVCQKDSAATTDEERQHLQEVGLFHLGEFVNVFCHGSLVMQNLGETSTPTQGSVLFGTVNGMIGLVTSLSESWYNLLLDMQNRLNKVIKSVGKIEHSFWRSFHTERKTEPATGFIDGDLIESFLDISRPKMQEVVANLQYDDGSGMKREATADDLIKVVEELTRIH
# IKZF2 = target: T3, IKZF2 (Homo sapiens, UniProt Q96SW2+Q9UKS7); experiment: Western-blot assay of substrate protein degradation in hPBMCs, IKZF2; assay type: cell-based; conditions: 24 hours of compound treatment, 50 nM and 500 nM tested (concentration behind the class not stated)
# T3 construct: endogenous in cells; host or cells: hPBMCs (Milecell Biotechnologies)
# T3 sequence (Q9UKS7 whole entry): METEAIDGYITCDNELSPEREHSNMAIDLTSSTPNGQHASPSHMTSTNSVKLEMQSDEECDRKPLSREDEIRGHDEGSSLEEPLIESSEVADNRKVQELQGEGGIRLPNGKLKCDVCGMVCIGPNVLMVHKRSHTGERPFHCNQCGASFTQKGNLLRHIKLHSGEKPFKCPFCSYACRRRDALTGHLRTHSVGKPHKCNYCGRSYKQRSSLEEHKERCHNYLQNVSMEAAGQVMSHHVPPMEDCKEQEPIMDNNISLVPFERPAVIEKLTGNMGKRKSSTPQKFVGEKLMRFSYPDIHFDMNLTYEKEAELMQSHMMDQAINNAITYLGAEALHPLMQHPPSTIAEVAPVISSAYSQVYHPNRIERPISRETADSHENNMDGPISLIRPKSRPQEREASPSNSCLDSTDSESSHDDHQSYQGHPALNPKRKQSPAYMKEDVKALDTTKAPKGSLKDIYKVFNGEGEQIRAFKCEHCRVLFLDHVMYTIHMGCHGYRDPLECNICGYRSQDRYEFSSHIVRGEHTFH
# T3 sequence (Q96SW2 whole entry): as the sequence (Q96SW2 whole entry) above
# T3 sequence (Q16531 whole entry partner): as the sequence (Q16531 whole entry partner) above
# IKZF3 = target: T4, IKZF3 (Homo sapiens, UniProt Q96SW2+Q9UKT9); experiment: Western-blot assay of substrate protein degradation in hPBMCs, IKZF3; assay type: cell-based; conditions: 24 hours of compound treatment, 50 nM and 500 nM tested (concentration behind the class not stated)
# T4 construct: endogenous in cells; host or cells: hPBMCs (Milecell Biotechnologies)
# T4 sequence (Q9UKT9 whole entry): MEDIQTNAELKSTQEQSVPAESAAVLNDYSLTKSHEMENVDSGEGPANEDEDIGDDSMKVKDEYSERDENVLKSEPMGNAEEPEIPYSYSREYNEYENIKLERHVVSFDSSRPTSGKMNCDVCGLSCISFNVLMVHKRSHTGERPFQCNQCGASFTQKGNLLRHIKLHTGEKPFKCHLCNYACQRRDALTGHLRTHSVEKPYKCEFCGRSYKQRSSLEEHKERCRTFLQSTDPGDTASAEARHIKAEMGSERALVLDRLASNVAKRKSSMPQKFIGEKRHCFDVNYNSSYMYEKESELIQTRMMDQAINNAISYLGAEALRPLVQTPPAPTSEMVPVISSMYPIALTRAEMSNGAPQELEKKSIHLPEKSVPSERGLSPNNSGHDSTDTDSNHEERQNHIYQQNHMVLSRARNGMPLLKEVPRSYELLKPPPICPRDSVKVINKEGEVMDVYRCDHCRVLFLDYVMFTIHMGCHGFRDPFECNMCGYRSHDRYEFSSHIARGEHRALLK
# T4 sequence (Q96SW2 whole entry): as the sequence (Q96SW2 whole entry) above
# T4 sequence (Q16531 whole entry partner): as the sequence (Q16531 whole entry partner) above
# CK1α = target: T5, CK1α (Homo sapiens, UniProt P48729+Q96SW2); experiment: Western-blot assay of substrate protein degradation in hPBMCs, CK1α; assay type: cell-based; conditions: 24 hours of compound treatment, 50 nM and 500 nM tested (concentration behind the class not stated)
# T5 construct: endogenous in cells; host or cells: hPBMCs (Milecell Biotechnologies)
# T5 sequence (P48729 whole entry): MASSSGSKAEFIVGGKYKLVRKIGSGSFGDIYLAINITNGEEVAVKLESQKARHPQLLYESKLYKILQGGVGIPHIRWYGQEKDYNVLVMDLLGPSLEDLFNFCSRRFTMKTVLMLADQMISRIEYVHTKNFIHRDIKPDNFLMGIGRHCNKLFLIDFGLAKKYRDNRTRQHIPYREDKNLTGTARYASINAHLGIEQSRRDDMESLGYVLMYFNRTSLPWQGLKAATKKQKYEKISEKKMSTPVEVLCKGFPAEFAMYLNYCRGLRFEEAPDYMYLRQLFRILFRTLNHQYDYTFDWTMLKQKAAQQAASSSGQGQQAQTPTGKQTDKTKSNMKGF
# T5 sequence (Q96SW2 whole entry): as the sequence (Q96SW2 whole entry) above
# T5 sequence (Q16531 whole entry partner): as the sequence (Q16531 whole entry partner) above
# GSPT1 = target: T6, GSPT1 (Homo sapiens, UniProt P15170+Q96SW2); experiment: Western-blot assay of substrate protein degradation in hPBMCs, GSPT1; assay type: cell-based; conditions: 24 hours of compound treatment, 50 nM and 500 nM tested (concentration behind the class not stated)
# T6 construct: endogenous in cells; host or cells: hPBMCs (Milecell Biotechnologies)
# T6 sequence (P15170 whole entry): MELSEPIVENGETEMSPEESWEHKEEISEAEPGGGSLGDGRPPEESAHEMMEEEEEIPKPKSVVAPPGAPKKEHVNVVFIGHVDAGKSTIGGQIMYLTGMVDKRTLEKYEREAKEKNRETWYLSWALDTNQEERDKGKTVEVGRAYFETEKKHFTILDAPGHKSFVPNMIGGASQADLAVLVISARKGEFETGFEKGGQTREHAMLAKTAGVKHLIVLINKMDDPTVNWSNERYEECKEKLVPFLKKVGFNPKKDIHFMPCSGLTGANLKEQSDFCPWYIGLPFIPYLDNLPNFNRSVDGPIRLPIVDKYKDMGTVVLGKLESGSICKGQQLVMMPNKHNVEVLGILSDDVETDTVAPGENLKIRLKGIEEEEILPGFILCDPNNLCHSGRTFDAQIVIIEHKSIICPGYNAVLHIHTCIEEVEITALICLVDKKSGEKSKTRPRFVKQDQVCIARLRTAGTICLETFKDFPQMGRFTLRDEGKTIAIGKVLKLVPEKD
# T6 sequence (Q96SW2 whole entry): as the sequence (Q96SW2 whole entry) above
# T6 sequence (Q16531 whole entry partner): as the sequence (Q16531 whole entry partner) above
# [1] = system: Human acute T lymphocytic leukemia cells (Molt-4); experiment: Tumor cell proliferation inhibition (CellTiter-Meiluncell Luminescent Cell Viability Assay), Molt-4; conditions: for inhibition at 0.01 µM: MOLT-4, read-out: Inhibition rate (%) at 10 nM; for inhibition at 0.5 µM: MOLT-4, read-out: Inhibition rate (%) at 500 nM
# CCRF-CEM = experiment: Tumor cell proliferation inhibition (CellTiter-Meiluncell Luminescent Cell Viability Assay), CCRF-CEM; conditions: Homo sapiens; for inhibition at 0.01 µM: read-out: Inhibition rate (%) at 10 nM; for inhibition at 0.5 µM: read-out: Inhibition rate (%) at 500 nM; for IC50: read-out: inhibitory activity (IC50, nM) against tumor cells proliferation, CCRF-CEM
# Kasumi-1 = experiment: Tumor cell proliferation inhibition (CellTiter-Meiluncell Luminescent Cell Viability Assay), Kasumi-1; conditions: Homo sapiens; for inhibition at 0.01 µM: Kasumi 1, read-out: Inhibition rate (%) at 10 nM; for inhibition at 0.5 µM: Kasumi 1, read-out: Inhibition rate (%) at 500 nM
# Procedure: (§1) On the following day, the test compounds of the present disclosure were subjected to serial dilution. […] Subsequently, 0.5 µL of the test compound dilution was transferred into the 96-well plate containing the cells, with each well containing 100 µL of cell culture medium. […] Into the 96-well plate, the diluted test compounds and corresponding detection reagents were added, resulting in final test compound concentrations of 500 nM and 10 nM, respectively. The experimental procedure is described below using the diluted 2 µM test compound as an example.
# (§2) After the cells were treated with the compounds of the present disclosure for a specified period (the treatment durations were shown in Table 3), the cell viability assay reagent was added to the culture medium according to the kit's instructions to determine cell viability. […] All controls were treated using the same procedure as the compounds of the present disclosure. The growth inhibition curves for the compounds of the present disclosure were plotted using Prism GraphPad software, and the IC50 values were calculated therefrom.
# [2] = system: Human breast cancer cells (MDA-MB-231); experiment: Tumor cell proliferation inhibition (CellTiter-Meiluncell Luminescent Cell Viability Assay), MDA-MB-231; conditions: for inhibition at 0.01 µM: MDA-MB-231, read-out: Inhibition rate (%) at 10 nM; for inhibition at 0.5 µM: MDA-MB-231, read-out: Inhibition rate (%) at 500 nM
# SR = experiment: Tumor cell proliferation inhibition (CellTiter-Meiluncell Luminescent Cell Viability Assay), SR; conditions: Homo sapiens, read-out: inhibitory activity (IC50, nM) against tumor cells proliferation, SR
# Vcap = experiment: Tumor cell proliferation inhibition (CellTiter-Meiluncell Luminescent Cell Viability Assay), Vcap; conditions: Homo sapiens, 96 h, read-out: inhibitory activity (IC50, nM) against tumor cells proliferation, Vcap
# TMD8 = experiment: Tumor cell proliferation inhibition (CellTiter-Meiluncell Luminescent Cell Viability Assay), TMD8; conditions: Homo sapiens
# MM.1S = experiment: Tumor cell proliferation inhibition (CellTiter-Meiluncell Luminescent Cell Viability Assay), MM.1S; conditions: Homo sapiens, MM1.S, read-out: inhibitory activity (IC50, nM) against tumor cells proliferation, MM.1S
# MM.1R = experiment: Tumor cell proliferation inhibition (CellTiter-Meiluncell Luminescent Cell Viability Assay), MM.1R; conditions: Homo sapiens, 96 h, read-out: inhibitory activity (IC50, nM) against tumor cells proliferation, MM.1R
# SW620 = experiment: Tumor cell proliferation inhibition (CellTiter-Meiluncell Luminescent Cell Viability Assay), SW620; conditions: Homo sapiens, SW-620, 96 h, read-out: inhibitory activity (IC50, nM) against tumor cells proliferation, SW620
# Procedure: (§3) The tumor cells used herein were cultured in a cell culture medium listed in table 2 at 37°C in an incubator with 5% CO2. Prior to experimentation, all cell lines used were correctly identified by STR profiling, and tested negative for mycoplasma contamination using a mycoplasma detection kit through routine screenings.
# as §1, §2
# Jurkat = experiment: Tumor cell proliferation inhibition (CellTiter-Meiluncell Luminescent Cell Viability Assay), Jurkat; conditions: Homo sapiens, read-out: inhibitory activity (IC50, nM) against tumor cells proliferation, Jurkat
# CAL-62 = experiment: Tumor cell proliferation inhibition (CellTiter-Meiluncell Luminescent Cell Viability Assay), CAL-62; conditions: Homo sapiens, CAL-62, 96 h, read-out: inhibitory activity (IC50, nM) against tumor cells proliferation, CAL-62
# MGC803 = experiment: Tumor cell proliferation inhibition (CellTiter-Meiluncell Luminescent Cell Viability Assay), MGC803; conditions: Homo sapiens, MGC-803, 96 h, read-out: inhibitory activity (IC50, nM) against tumor cells proliferation, MGC803
# MV-4-11 = experiment: Tumor cell proliferation inhibition (CellTiter-Meiluncell Luminescent Cell Viability Assay), MV-4-11; conditions: Homo sapiens, MV4-11, read-out: inhibitory activity (IC50, nM) against tumor cells proliferation, MV-4-11
# Procedure: as §3
# On the following day, the test compounds of the present disclosure were subjected to serial dilution. […] Subsequently, 0.5 µL of the test compound dilution was transferred into the 96-well plate containing the cells, with each well containing 100 µL of cell culture medium. […] Into the 96-well plate, the diluted test compounds and corresponding detection reagents were added, resulting in final test compound concentrations of 500 nM and 10 nM, respectively.
# as §2
# NCI-H1975 = experiment: Tumor cell proliferation inhibition (CellTiter-Meiluncell Luminescent Cell Viability Assay), NCI-H1975; conditions: Homo sapiens
SMILES,Weel substrate protein remaining % (WEE1),IKZF 1 substrate protein remaining % (IKZF1),IKZF2 substrate protein remaining % (IKZF2),IKZF3 substrate protein remaining % (IKZF3),CK1a substrate protein remaining % (CK1α),GSPT1 substrate protein remaining % (GSPT1),inhibition at 0.01 µM [1],inhibition at 0.5 µM [1],inhibition at 0.01 µM (CCRF-CEM),inhibition at 0.5 µM (CCRF-CEM),inhibition at 0.01 µM (Kasumi-1),inhibition at 0.5 µM (Kasumi-1),inhibition at 0.01 µM [2],inhibition at 0.5 µM [2],other results
"O=C1CCC(N2C(=O)c3ccc(CN4CC=C(c5cccc(Cl)c5Cl)CC4)cc3C2=O)C(=O)N1 (centres unmarked) [GT-07842, 5-((4-(2,3-dichlorophenyl)-3,6-dihydropyridin-1(2H)-yl)methyl)-2-(2,6-dioxopiperidin-3-yl)isoindoline-1,3-dione]",B (80%< substrate protein remaining %≤ 100%),A (0% ≤ substrate protein remaining % ≤ 80%),A (0% ≤ substrate protein remaining % ≤ 80%),A (0% ≤ substrate protein remaining % ≤ 80%),B (80%< substrate protein remaining %≤ 100%),A (0% ≤ substrate protein remaining % ≤ 80%),20 to 30%,80 to 90%,20 to 30%,90 to 100%,30 to 40%,40 to 50%,20 to 30%,20 to 30%,
"O=C1CCC(N2C(=O)c3ccc(CN4CCN(c5nc(N6CCCCC6)nc6c5SCC6)CC4)cc3C2=O)C(=O)N1 (centres unmarked) [GT-08003, 2-(2,6-dioxopiperidin-3-yl)-5-((4-(2-(piperidin-1-yl)-6,7-dihydrothieno[3,2-d]pyrimidin-4-yl)piperazin-1-yl)methyl)isoindoline-1,3-dione]",B (80%< substrate protein remaining %≤ 100%),A (0% ≤ substrate protein remaining % ≤ 80%),A (0% ≤ substrate protein remaining % ≤ 80%),A (0% ≤ substrate protein remaining % ≤ 80%),A (0% ≤ substrate protein remaining % ≤ 80%),A (0% ≤ substrate protein remaining % ≤ 80%),20 to 30%,90 to 100%,20 to 30%,90 to 100%,5 to 10%,80 to 90%,30 to 40%,30 to 40%,
"O=C1CCC(N2C(=O)c3ccc(CN4CC(=C5CCOc6cc(F)ccc65)C4)cc3C2=O)C(=O)N1 (centres unmarked) [GT-08134, 2-(2,6-dioxopiperidin-3-yl)-5-((3-(7-fluorochroman-4-ylidene)azetidin-1-yl)methyl)isoindoline-1,3-dione]",B (80%< substrate protein remaining %≤ 100%),A (0% ≤ substrate protein remaining % ≤ 80%),A (0% ≤ substrate protein remaining % ≤ 80%),A (0% ≤ substrate protein remaining % ≤ 80%),B (80%< substrate protein remaining %≤ 100%),A (0% ≤ substrate protein remaining % ≤ 80%),,,15 to 20%,60 to 80%,10 to 15%,60 to 80%,30 to 40%,20 to 30%,
"Nc1cccc2c1CN(C1CCC(=O)NC1=O)C2=O (centres unmarked) [lenalidomide, reference compound]",,,,,,,15 to 20%,10 to 15%,10 to 15%,10 to 15%,5 to 10%,0 to 5%,15 to 20%,10 to 15%,
"Nc1cccc2c1C(=O)N(C1CCC(=O)NC1=O)C2=O (centres unmarked) [pomalidomide, reference compound]",,,,,,,,,,,,,,,"IC50 (SR; 96 h): > 10000 nM; IC50 (SR): > 10000 nM; IC50 (Vcap): > 10000 nM; IC50 (TMD8; TMD8, 96 h, read-out: inhibitory activity (IC50, nM) against tumor cells proliferation, TMD8): 5000 to 10000 nM; IC50 (TMD8; TMD8, read-out: inhibitory activity (IC50, nM) against tumor cells proliferation, TMD8): 5000 to 10000 nM; IC50 (MM.1S): 500 to 1000 nM; IC50 (MM.1R): > 10000 nM; IC50 (SW620): > 10000 nM; IC50 (Jurkat; 96 h): > 10000 nM; IC50 (Jurkat): > 10000 nM; IC50 (CAL-62): > 10000 nM; IC50 ([1]; MOLT-4, 96 h, read-out: inhibitory activity (IC50, nM) against tumor cells proliferation, Molt 4): > 10000 nM; IC50 ([1]; MOLT-4, read-out: inhibitory activity (IC50, nM) against tumor cells proliferation, Molt-4): > 10000 nM; IC50 (MGC803): > 10000 nM; IC50 (MV-4-11): > 10000 nM; IC50 (CCRF-CEM; 96 h): > 10000 nM; IC50 (CCRF-CEM): > 10000 nM; IC50 (NCI-H1975; NCI-H1975, 96 h, read-out: inhibitory activity (IC50, nM) against tumor cells proliferation, H1975): > 10000 nM; IC50 (NCI-H1975; NCI-H1975, read-out: inhibitory activity (IC50, nM) against tumor cells proliferation, H1975): > 10000 nM; IC50 ([2]; MDA-MB-231, 96 h, read-out: inhibitory activity (IC50, nM) against tumor cells proliferation, MDA-MB-231): > 10000 nM"
